Values after ≈ are worked out from the molar mass of the structure shown.
Columns and labels:
[1] = tested on: Ba/F3 cells engineered to be dependent on CSF1R; experiment: Cell viability assay with Ba/F3-hCSF1R cells; assay type: cell-based
Procedure: (§1) Given the promising enzymatic activity of the synthesized derivatives, cellular assays were performed using Ba/F3 cells engineered to depend on constitutively active CSF1R. […] We have also previously observed a low correlation between enzymatic and cellular activities, which may arise from the enzymatic protein construct not accurately mimicking the active conformation of CSF1R in a cellular context.
(§2) Performed as reported previously.

Kinetic solubility = assay type: physicochemical; conditions: aqueous buffer, kinetic from dmso stock; spectrophotometric, pH 7.4 in HEPES buffer
Procedure: (§3) The aqueous solubility of the compounds and metabolic stability under oxidative conditions was performed as described previously.

CSF1R = CSF1R (Homo sapiens, UniProt P07333); experiment: CSF1R enzymatic inhibitory assay (TR-FRET LANCE Ultra); assay type: biochemical; conditions: single eight-point titrations, ATP 25 μM, R^2 of fit in parentheses
Chain of CSF1R (P07333 20-972): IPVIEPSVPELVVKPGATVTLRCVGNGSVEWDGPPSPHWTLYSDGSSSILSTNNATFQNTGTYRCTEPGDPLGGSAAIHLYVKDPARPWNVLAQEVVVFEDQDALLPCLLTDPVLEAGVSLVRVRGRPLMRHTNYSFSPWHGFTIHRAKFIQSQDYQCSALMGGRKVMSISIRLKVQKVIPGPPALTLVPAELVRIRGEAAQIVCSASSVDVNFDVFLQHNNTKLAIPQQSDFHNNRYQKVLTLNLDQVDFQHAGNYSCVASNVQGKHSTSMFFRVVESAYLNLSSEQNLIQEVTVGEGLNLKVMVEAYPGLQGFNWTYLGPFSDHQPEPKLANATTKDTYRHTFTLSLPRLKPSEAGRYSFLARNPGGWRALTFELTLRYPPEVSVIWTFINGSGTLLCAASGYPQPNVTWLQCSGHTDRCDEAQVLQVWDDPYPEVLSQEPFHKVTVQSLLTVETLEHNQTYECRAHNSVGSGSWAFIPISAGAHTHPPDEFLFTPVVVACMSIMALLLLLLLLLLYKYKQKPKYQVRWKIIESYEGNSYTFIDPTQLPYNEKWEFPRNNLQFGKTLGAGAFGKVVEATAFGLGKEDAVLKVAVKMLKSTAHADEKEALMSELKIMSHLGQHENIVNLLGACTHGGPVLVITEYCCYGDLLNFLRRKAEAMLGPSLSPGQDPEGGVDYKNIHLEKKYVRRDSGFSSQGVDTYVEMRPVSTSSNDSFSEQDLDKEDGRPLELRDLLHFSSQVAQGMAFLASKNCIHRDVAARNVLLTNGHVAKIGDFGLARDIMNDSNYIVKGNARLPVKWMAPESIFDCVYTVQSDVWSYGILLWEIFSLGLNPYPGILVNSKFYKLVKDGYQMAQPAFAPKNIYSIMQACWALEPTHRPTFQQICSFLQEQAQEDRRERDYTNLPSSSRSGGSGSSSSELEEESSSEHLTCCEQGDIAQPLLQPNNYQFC
Procedure: The TR-FRET-based LANCE Ultra assay (Perkin Elmer, Waltham, MA, USA) was used to determine IC50 values for various CSF1R inhibitors. Kinase activity and inhibition in this assay was measured as previously reported. Scigilian Analyze software version 5.8.5.15 (Scigilian, Montreal, QC, Canada) was used.

[2] = tested on: Ba/F3 cells engineered to be dependent on CSF1R but added additional IL-3; experiment: Cell viability assay with Ba/F3-hCSF1R cells with added IL-3; assay type: cell-based; conditions: Mus musculus, BaF3; Ba/F3 CSF1R cells with additional IL-3; read-out: Cellular Assay IC50 (μM), Ba/F3 IL-3
Procedure: as §1, §2

[3] = Microsomal stability, mouse liver microsomes; assay type: in vitro ADME; conditions: mouse liver microsome
Procedure: as §3

MDCK permeability assay = assay type: in vitro ADME, canine; conditions: dog, MDCK monolayer
Procedure: Six selected compounds were assessed for metabolic stability (clearance) in mouse liver microsomes (MLM) and human liver microsomes (HLM), and apparent permeability (Papp) using a MDCK permeability assay. […] Although currently limited by solubility and permeability, its metabolic profile provides a starting point for targeted structural modifications aimed at overcoming these challenges.

[4] = Microsomal stability, human liver microsomes; assay type: in vitro ADME; conditions: human liver microsome
Procedure: as §3

panel of 50 kinases = experiment: Kinase panel selectivity; assay type: biochemical; conditions: 1 μM
Procedure: To further evaluate potential off-target activity, compound 14c was screened against a panel of 50 kinases at a concentration of 1 μM. […] Inhibitor selectivity can be quantified using the selectivity score (S-score), which assumes that low inhibitory activity is clinically irrelevant. The S-score is calculated by dividing the number of kinases inhibited above a defined threshold by the total number of kinases tested. […] Further details on the selectivity data can be found in SI (Table S1). […]
(§4) Ta b l e S 1. Inhibition (%) by compound 14c towards di7erent kinases. Values are average of two
(§5) measurements at 1000 nM test concentration. The ATP concentration was equal to KM.
(§6) Kinase ATP conc. % inhibition

KIT = KIT (Homo sapiens, UniProt P10721); experiment: Kinase panel; assay type: biochemical
Procedure: as §4, §5, §6

FLT3 = FLT3 (Homo sapiens, UniProt P36888); experiment: Kinase panel; assay type: biochemical
Procedure: as §4, §5, §6

ABL2 = ABL2 (Homo sapiens, UniProt P42684); experiment: Kinase panel; assay type: biochemical
Procedure: as §4, §5, §6

BTK = BTK (Homo sapiens, UniProt Q06187); experiment: Kinase panel; assay type: biochemical
Procedure: as §4, §5, §6

CLK1 = CLK1 (Homo sapiens, UniProt P49759); experiment: Kinase panel; assay type: biochemical
Procedure: as §4, §5, §6

ERBB2 = ERBB2 (Homo sapiens, UniProt P04626); experiment: Kinase panel; assay type: biochemical
Chain of ERBB2 (P04626 23-1255, species assumed): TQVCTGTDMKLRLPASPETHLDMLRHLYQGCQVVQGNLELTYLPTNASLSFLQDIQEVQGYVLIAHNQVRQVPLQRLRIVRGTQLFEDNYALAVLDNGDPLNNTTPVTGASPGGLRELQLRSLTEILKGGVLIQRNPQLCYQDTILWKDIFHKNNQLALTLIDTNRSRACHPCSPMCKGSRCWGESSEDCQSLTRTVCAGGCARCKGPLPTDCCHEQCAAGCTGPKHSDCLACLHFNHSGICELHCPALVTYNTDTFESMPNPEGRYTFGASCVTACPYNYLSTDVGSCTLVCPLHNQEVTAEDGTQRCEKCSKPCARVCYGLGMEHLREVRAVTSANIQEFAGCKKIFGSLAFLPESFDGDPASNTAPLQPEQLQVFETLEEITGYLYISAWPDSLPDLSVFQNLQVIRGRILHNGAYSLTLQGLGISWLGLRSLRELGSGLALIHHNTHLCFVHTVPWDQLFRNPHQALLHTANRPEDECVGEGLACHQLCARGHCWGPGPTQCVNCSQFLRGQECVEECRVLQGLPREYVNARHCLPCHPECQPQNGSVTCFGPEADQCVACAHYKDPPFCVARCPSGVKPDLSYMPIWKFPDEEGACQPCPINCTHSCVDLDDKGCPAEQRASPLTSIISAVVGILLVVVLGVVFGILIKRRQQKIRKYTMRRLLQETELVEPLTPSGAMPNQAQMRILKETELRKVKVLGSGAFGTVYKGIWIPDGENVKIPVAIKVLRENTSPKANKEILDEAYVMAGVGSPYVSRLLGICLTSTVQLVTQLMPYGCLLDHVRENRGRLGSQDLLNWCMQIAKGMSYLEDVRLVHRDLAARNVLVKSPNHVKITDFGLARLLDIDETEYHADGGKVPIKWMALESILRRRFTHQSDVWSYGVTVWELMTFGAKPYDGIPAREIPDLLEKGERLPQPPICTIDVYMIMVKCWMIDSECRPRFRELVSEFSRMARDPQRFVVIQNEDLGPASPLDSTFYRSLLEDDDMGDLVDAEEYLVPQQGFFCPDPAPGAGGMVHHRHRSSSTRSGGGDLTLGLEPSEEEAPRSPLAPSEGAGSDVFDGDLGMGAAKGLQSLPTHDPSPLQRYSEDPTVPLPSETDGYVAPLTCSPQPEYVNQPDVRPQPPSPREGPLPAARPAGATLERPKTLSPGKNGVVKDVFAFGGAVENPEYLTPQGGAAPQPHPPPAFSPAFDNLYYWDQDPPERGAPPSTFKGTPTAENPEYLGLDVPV
Procedure: as §4, §5, §6

PAK1 = PAK1 (Homo sapiens, UniProt Q13153); experiment: Kinase panel; assay type: biochemical
Procedure: as §4, §5, §6

ALK = ALK (Homo sapiens, UniProt Q9UM73); experiment: Kinase panel; assay type: biochemical
Chain of ALK (Q9UM73 19-1620, species assumed): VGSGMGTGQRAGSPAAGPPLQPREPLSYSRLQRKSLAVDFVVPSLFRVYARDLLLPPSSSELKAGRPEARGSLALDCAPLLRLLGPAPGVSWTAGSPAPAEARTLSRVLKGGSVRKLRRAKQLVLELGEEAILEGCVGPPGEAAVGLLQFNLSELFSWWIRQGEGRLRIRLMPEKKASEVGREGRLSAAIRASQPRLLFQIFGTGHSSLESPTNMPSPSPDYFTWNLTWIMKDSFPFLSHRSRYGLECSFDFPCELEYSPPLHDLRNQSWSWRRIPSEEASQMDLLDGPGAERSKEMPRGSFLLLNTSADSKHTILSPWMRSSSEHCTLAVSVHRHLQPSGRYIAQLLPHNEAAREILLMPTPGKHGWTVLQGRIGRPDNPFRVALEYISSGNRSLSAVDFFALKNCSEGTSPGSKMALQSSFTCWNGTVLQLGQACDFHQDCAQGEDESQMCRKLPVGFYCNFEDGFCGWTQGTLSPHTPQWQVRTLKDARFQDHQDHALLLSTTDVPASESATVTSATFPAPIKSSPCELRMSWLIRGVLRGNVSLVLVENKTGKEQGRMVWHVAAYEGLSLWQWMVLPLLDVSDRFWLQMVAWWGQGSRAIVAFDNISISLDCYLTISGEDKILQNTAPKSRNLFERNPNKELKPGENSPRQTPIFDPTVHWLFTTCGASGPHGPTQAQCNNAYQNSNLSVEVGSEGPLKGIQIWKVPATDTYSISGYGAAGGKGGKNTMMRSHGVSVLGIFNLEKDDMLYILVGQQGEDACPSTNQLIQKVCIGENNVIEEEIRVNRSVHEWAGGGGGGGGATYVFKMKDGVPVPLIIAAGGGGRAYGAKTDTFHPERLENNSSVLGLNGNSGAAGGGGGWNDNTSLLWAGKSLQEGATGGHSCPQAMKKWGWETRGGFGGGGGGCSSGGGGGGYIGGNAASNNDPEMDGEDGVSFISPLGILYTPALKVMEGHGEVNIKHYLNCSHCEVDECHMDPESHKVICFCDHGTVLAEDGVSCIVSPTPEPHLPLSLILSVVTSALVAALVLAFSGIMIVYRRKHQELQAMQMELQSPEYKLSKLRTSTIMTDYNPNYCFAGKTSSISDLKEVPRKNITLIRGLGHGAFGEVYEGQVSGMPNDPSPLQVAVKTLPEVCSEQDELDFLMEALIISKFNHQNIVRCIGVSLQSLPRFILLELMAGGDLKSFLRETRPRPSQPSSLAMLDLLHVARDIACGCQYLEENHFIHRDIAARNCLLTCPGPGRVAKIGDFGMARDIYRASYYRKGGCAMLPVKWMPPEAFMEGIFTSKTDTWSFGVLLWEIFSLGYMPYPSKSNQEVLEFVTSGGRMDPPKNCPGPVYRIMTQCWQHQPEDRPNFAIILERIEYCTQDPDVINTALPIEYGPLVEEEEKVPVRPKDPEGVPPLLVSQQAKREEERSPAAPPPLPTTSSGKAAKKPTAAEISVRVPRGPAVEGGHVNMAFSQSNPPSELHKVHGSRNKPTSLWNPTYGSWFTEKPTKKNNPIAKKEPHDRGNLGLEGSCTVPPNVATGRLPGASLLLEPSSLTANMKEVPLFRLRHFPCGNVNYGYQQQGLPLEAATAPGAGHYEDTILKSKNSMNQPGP
Procedure: as §4, §5, §6

DYRK1A = DYRK1A (Homo sapiens, UniProt Q13627); experiment: Kinase panel; assay type: biochemical
Procedure: as §4, §5, §6

EGFR = EGFR (Homo sapiens, UniProt P00533); experiment: Kinase panel; assay type: biochemical
Procedure: as §4, §5, §6

MUSK = MUSK (Homo sapiens, UniProt O15146); experiment: Kinase panel; assay type: biochemical
Procedure: as §4, §5, §6

ERBB4 = ERBB4 (Homo sapiens, UniProt Q15303); experiment: Kinase panel; assay type: biochemical
Procedure: as §4, §5, §6

FLT4 = FLT4 (Homo sapiens, UniProt P35916); experiment: Kinase panel; assay type: biochemical
Procedure: as §4, §5, §6

HCK = HCK (Homo sapiens, UniProt P08631); experiment: Kinase panel; assay type: biochemical
Procedure: as §4, §5, §6

AKT1 = AKT1 (Homo sapiens, UniProt P31749); experiment: Kinase panel; assay type: biochemical
Procedure: as §4, §5, §6

SRC = SRC (Homo sapiens, UniProt P12931); experiment: Kinase panel; assay type: biochemical
Procedure: as §4, §5, §6

BLK = BLK (Homo sapiens, UniProt P51451); experiment: Kinase panel; assay type: biochemical
Procedure: as §4, §5, §6

GSK3B = GSK3B (Homo sapiens, UniProt P49841); experiment: Kinase panel; assay type: biochemical
Procedure: as §4, §5, §6

JAK1 = JAK1 (Homo sapiens, UniProt P23458); experiment: Kinase panel; assay type: biochemical
Procedure: as §4, §5, §6

FGFR1 = FGFR1 (Homo sapiens, UniProt P11362); experiment: Kinase panel; assay type: biochemical
Procedure: as §4, §5, §6

MKNK1 = MKNK1 (Homo sapiens, UniProt Q9BUB5); experiment: Kinase panel; assay type: biochemical
Chain of MKNK1 (Q9BUB5 whole entry, species assumed): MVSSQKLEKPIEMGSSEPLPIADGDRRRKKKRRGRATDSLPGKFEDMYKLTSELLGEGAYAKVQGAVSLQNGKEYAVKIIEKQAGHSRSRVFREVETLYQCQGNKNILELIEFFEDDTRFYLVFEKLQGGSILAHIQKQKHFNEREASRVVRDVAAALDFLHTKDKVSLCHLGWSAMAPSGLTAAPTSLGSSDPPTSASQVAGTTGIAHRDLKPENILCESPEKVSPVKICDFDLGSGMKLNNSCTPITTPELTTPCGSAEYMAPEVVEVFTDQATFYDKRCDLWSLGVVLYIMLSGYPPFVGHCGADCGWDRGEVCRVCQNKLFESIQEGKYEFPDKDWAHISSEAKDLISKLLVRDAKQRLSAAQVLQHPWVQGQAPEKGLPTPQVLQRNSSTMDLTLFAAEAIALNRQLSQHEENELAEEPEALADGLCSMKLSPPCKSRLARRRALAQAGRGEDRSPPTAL
Procedure: as §4, §5, §6

ROCK1 = ROCK1 (Homo sapiens, UniProt Q13464); experiment: Kinase panel; assay type: biochemical
Procedure: as §4, §5, §6

FLT1 = FLT1 (Homo sapiens, UniProt P17948); experiment: Kinase panel; assay type: biochemical
Procedure: as §4, §5, §6

LYN A = LYN A (Homo sapiens, UniProt P07948); experiment: Kinase panel; assay type: biochemical
Chain of LYN A (P07948 whole entry, species assumed): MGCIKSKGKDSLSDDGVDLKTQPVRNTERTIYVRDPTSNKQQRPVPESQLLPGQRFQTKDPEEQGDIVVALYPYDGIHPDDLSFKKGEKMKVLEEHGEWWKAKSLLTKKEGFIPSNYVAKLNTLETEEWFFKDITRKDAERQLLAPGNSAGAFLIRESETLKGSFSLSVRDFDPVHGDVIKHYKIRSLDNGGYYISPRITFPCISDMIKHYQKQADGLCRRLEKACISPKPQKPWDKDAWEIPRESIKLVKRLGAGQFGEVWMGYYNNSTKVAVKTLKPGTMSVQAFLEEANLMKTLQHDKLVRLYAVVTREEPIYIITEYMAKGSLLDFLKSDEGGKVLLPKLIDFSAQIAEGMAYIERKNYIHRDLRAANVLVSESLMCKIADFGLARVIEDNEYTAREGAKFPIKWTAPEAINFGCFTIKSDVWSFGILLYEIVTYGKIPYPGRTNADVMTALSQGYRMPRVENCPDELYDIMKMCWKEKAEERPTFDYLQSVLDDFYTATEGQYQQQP
Procedure: as §4, §5, §6

ITK = ITK (Homo sapiens, UniProt Q08881); experiment: Kinase panel; assay type: biochemical
Procedure: as §4, §5, §6

IC50 ([1]; Mus musculus, BaF3, Ba/F3 cells dependent on CSF1R, with standard deviation, read-out: Cellular Assay IC50 (μM), Ba/F3 CSF1R): > 10 µM | solubility kinetic (Kinetic solubility): 0.7 µM (≈ 0.352 µg/mL) | IC50 (CSF1R): 0.00718 µM | IC50 [2]: > 10 µM | MLM in vitro intrinsic clearing [3]: 60.5 µL/min/mg | Papp A→B (MDCK permeability assay; A–B direction): 5.4 ×10⁻⁶ cm/s | Papp B→A (MDCK permeability assay; B–A direction): 0.8 ×10⁻⁶ cm/s | efflux ratio (MDCK permeability assay; read-out: MDCK Ratio (Papp B–A/A–B)): 0.14 | HLM in vitro intrinsic clearing [4]: 77 µL/min/mg | Selectivity towards CSF1R in kinase panel (in words) (panel of 50 kinases): high selectivity | inhibition at 1 µM (KIT): 18% | inhibition at 1 µM (FLT3): 26% | inhibition at 1 µM (ABL2): 75% | inhibition at 1 µM (BTK): 13% | inhibition at 1 µM (CLK1): 3% | inhibition at 1 µM (ERBB2): 9% | inhibition at 1 µM (PAK1): 9% | inhibition at 1 µM (ALK): 11% | inhibition at 1 µM (DYRK1A): 4% | inhibition at 1 µM (EGFR): 57% | inhibition at 1 µM (MUSK): 19% | inhibition at 1 µM (ERBB4): 2% | inhibition at 1 µM (FLT4): 2% | inhibition at 1 µM (HCK): 16% | inhibition at 1 µM (AKT1): 2% | inhibition at 1 µM (SRC): 43% | inhibition at 1 µM (BLK): 19% | inhibition at 1 µM (GSK3B): 11% | inhibition at 1 µM (JAK1): -5% | inhibition at 1 µM (FGFR1): 3% | inhibition at 1 µM (MKNK1): 1% | inhibition at 1 µM (ROCK1): -1% | inhibition at 1 µM (FLT1): 5% | inhibition at 1 µM (LYN A): 18% | inhibition at 1 µM (ITK): 8%
Structure (SMILES): Cc1cccc(CN(C)c2ncnc3[nH]c(-c4ccc(NCc5ccc(C(F)(F)F)nc5)nc4)cc23)c1 [Compound 14c, N-Methyl-N-(3-methylbenzyl)-6-(6-(((6-(trifluoromethyl)pyridin-3-yl)methyl)amino)pyridin-3-yl)-7H-pyrrolo[2,3-d]pyrimidin-4-amine]
Cellular activity in Ba/F3 CSF1R cells (in words) ([1]; Ba/F3 cells dependent on constitutively active CSF1R): completely inactive in cells

From article PMC12196264, “Design and Synthesis of Pyridine-Based Pyrrolo[2,3-d]pyrimidine Analogs as CSF1R Inhibitors: Molecular Hybridization and Scaffold Hopping Approach” (Pharmaceuticals, 2025)
